In patent US20260217767A1, “NOVEL A4B7 THIOETHER PEPTIDE DIMER ANTAGONISTS” (Protagonist Therapeutics, Inc., priority 2014, published 2026):
*1 amine or outer side, *2 acyl side, *3 side chain or, on linkers, in order; H or OH if unused. Where a SMILES comes first, the peptide text is derived from it. Bridges are numbered along the chain shown (N, C = ends). Roman numbers before positions name the chains, in order. [ ]: non-standard residue; d: D form. Diglycolyl = O=C(COCC(=O)[*:2])[*:1]; NMeR = CN[C@@H](CCCNC(=N)N)C(=O)O; Tic = O=C(O)[C@@H]1Cc2ccccc2CN1; β3hE = N[C@@H](CCC(=O)O)CC(=O)O; X1 = O=C(c1ccccc1C[*:2])[*:1]

What follows are molecules tested against T1, RPMI 8866 cells (Homo sapiens, UniProt P13612+P26010) (assay: α4β7-MAdCAM Cell Adhesion Assay). Conditions: thioether monomer peptides, Table 6; read-out: Cell-Adhesion A4B7.
T1 sequence (P13612 34-1032): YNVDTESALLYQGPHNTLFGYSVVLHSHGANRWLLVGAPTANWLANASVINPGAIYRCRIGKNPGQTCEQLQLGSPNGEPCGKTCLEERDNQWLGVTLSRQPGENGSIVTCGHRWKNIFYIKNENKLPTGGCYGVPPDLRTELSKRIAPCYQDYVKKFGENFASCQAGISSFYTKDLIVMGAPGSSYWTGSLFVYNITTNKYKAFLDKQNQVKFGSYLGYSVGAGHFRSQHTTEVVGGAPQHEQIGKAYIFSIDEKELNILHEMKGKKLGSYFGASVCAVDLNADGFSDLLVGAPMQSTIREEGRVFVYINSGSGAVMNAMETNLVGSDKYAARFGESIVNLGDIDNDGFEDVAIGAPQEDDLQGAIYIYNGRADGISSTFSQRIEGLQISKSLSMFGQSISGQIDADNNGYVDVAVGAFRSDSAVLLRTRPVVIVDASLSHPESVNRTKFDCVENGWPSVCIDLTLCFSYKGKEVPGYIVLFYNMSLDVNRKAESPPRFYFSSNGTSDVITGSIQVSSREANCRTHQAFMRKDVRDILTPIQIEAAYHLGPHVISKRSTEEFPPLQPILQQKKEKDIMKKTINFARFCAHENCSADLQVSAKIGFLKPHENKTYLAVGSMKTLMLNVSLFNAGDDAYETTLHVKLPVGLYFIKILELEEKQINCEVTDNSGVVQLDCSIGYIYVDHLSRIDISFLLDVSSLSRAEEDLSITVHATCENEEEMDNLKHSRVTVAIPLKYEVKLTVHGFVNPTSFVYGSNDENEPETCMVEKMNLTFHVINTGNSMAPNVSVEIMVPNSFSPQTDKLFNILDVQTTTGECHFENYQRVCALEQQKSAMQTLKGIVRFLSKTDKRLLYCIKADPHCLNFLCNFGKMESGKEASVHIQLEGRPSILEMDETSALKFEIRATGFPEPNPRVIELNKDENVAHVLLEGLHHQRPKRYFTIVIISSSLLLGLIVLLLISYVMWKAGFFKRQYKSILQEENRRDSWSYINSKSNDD
T1 sequence (P26010 20-798): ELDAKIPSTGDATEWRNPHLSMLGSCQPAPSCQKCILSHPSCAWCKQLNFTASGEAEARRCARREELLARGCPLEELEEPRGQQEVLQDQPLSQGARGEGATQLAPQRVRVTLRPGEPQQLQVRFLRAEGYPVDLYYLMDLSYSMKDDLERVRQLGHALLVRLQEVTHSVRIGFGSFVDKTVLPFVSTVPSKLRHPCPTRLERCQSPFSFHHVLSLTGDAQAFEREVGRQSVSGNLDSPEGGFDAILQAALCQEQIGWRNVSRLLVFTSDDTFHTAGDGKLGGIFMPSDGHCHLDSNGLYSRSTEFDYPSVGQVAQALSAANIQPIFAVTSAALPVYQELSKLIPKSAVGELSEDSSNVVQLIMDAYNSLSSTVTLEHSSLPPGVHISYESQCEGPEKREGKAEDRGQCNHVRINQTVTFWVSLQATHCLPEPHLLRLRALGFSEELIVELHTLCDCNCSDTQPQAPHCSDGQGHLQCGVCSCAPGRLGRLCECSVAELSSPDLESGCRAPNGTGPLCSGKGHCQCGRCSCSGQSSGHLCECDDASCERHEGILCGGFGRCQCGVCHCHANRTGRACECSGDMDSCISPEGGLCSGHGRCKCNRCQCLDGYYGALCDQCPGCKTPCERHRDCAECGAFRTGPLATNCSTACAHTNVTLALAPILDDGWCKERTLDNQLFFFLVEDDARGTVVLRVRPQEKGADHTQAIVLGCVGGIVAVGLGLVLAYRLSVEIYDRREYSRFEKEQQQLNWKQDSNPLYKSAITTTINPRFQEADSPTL
Assay type: cell-based
In short: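 Peptide inhibition of adhesion measured with MAdCAM-1/Fc chimera immobilised at 200 ng/well and MnCl2-activated (1 mM) RPMI 8866 cells, 30-45 min at 37° C. Adherent cells remaining after three washes detected by MTT reduction at 570 nm, corrected for no-cell wells, giving dose response.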

Question: How did the IC50 turn out when CC(C)C[C@@H]1NC(=O)[C@H]([C@@H](C)O)NC(=O)[C@H](CC(=O)O)NC(=O)[C@H](CO)NC(=O)[C@H](CCCNC(=N)N)N(C)C(=O)c2ccccc2CSC(C)(C)[C@@H](C(=O)N[C@@H](Cc2c[nH]c3ccccc23)C(=O)N[C@H](CCC(=O)O)C(=O)N[C@@H](CO)C(N)=O)NC1=O [compound 100] (HELM PEPTIDE1{[meR].S.D.T.L.[Pen].W.[dE].S.[am]}|CHEM1{[O=C(c1ccccc1C[*:2])[*:1]]}$PEPTIDE1,CHEM1,1:R1-1:R1|PEPTIDE1,CHEM1,6:R3-1:R2$$$V2.0) was run?
Answer: 0.025 to 0.1 µM

Question: How did the IC50 turn out when CC(C)C[C@@H]1NC(=O)[C@H]([C@@H](C)O)NC(=O)[C@H](CC(=O)O)NC(=O)[C@H](CO)NC(=O)[C@H](CCCNC(=N)N)N(C)C(=O)c2ccccc2CSC(C)(C)[C@@H](C(=O)N[C@@H](Cc2c[nH]c3ccccc23)C(=O)N[C@H](CCC(=O)O)C(=O)N[C@@H](CCC(=O)O)C(N)=O)NC1=O [compound 113] (HELM PEPTIDE1{[meR].S.D.T.L.[Pen].W.[dE].E.[am]}|CHEM1{[O=C(c1ccccc1C[*:2])[*:1]]}$PEPTIDE1,CHEM1,1:R1-1:R1|PEPTIDE1,CHEM1,6:R3-1:R2$$$V2.0) was run?
Answer: 0.025 to 0.1 µM

Question: With CC(C)C[C@@H]1NC(=O)[C@H]([C@@H](C)O)NC(=O)[C@H](CC(=O)O)NC(=O)[C@H](CO)NC(=O)[C@H](CCCNC(=N)N)N(C)C(=O)c2ccccc2CSC(C)(C)[C@@H](C(=O)N[C@@H](Cc2c[nH]c3ccccc23)C(=O)N[C@@H](CCC(=O)O)C(N)=O)NC1=O [compound 96] (HELM PEPTIDE1{[meR].S.D.T.L.[Pen].W.E.[am]}|CHEM1{[O=C(c1ccccc1C[*:2])[*:1]]}$PEPTIDE1,CHEM1,1:R1-1:R1|PEPTIDE1,CHEM1,6:R3-1:R2$$$V2.0) as the molecule, how does the IC50 read?
Answer: 0.1 to 1 µM

Same assay, conditions: thioether peptide dimers, Table 7; read-out: Cell-Adhesion A4B7

Question: Which IC50 does the source give for CC(C)C[C@@H]1NC(=O)[C@H]([C@@H](C)O)NC(=O)[C@H](CC(=O)O)NC(=O)[C@H](CO)NC(=O)[C@H](CCCNC(=N)N)N(C)C(=O)c2ccccc2CSC[C@H](C(=O)N[C@@H](Cc2c[nH]c3ccccc23)C(=O)N[C@@H](CCC(=O)O)CC(=O)N[C@H](CCCCNC(=O)COCC(=O)NCCCC[C@@H](NC(=O)C[C@H](CCC(=O)O)NC(=O)[C@H](Cc2c[nH]c3ccccc23)NC(=O)[C@H]2CSCc3ccccc3C(=O)N(C)[C@@H](CCCNC(=N)N)C(=O)N[C@@H](CO)C(=O)N[C@@H](CC(=O)O)C(=O)N[C@@H]([C@@H](C)O)C(=O)N[C@@H](CC(C)C)C(=O)N2)C(N)=O)C(N)=O)NC1=O [compound 156] (I: [NMeR]SDTL[dC]W[β3hE][dK]-NH2 / II: [NMeR]SDTL[dC]W[β3hE][dK]-NH2; linker I:9-II:9 via Diglycolyl; linker I:N-I:6, II:N-II:6 via X1) here?
Answer: 0.025 to 0.1 µM

Question: Which IC50 does the source give for CC(C)C[C@@H]1NC(=O)[C@H]([C@@H](C)O)NC(=O)[C@H](CC(=O)O)NC(=O)[C@H](CO)NC(=O)[C@H](CCCNC(=N)N)N(C)C(=O)C(C)SC[C@@H](C(=O)N[C@@H](Cc2c[nH]c3ccccc23)C(=O)N[C@H](CCCCN)C(N)=O)NC1=O (single isomer, unassigned) [compound 144] here?
Answer: > 1 µM

Question: CC(C)C[C@@H]1NC(=O)[C@H]([C@@H](C)O)NC(=O)[C@H](CC(=O)O)NC(=O)[C@H](CO)NC(=O)[C@H](CCCNC(=N)N)N(C)C(=O)c2ccccc2CSC[C@@H](C(=O)N2Cc3ccccc3C[C@H]2C(=O)N[C@H](CCC(=O)O)C(=O)N[C@H](CCCCNC(=O)COCC(=O)NCCCC[C@@H](NC(=O)[C@@H](CCC(=O)O)NC(=O)[C@@H]2Cc3ccccc3CN2C(=O)[C@@H]2CSCc3ccccc3C(=O)N(C)[C@@H](CCCNC(=N)N)C(=O)N[C@@H](CO)C(=O)N[C@@H](CC(=O)O)C(=O)N[C@@H]([C@@H](C)O)C(=O)N[C@@H](CC(C)C)C(=O)N2)C(N)=O)C(N)=O)NC1=O [compound 184] (I: [NMeR]SDTLC[Tic][dE][dK]-NH2 / II: [NMeR]SDTLC[Tic][dE][dK]-NH2; linker I:9-II:9 via Diglycolyl; linker I:N-I:6, II:N-II:6 via X1) was tested. Which IC50 did it give?
Answer: < 0.025 µM
